Test results from patent US20080300288A1, “Alkenyldiarylmethanes, Fused Analogs And Syntheses Thereof” (PURDUE RESEARCH FOUNDATION, priority 2005, published 2008).
pEC50, pIC50: −log10 of the molar value. Like-named read-outs stand apart in the source and are kept apart here.

What was measured:
[1] = system: HIV-1 strain IIIB; experiment: MTT assay, HIV-1 strain IIIB in MT-4 cells; type: cell-based; details: Human immunodeficiency virus 1, MT4; HIV-1IIIB in MT-4 cells; read-out: EC50 HIV-1IIIB (inhibition of cytopathicity)
[2] = system: CEM-SS cells; experiment: Cytotoxicity in mock-infected CEM-SS cells; type: cell-based; details: read-out: CC50 CEM-SS Cells (50% cytotoxic concentration)
Protocol: (§1) In Vitro Antiviral Assays. Evaluation of the antiviral activity of compounds against HIV-1RF infection in CEM-SS cells was performed using the MTS cytoprotection assay as previously described. See, Rice, W. G.; Bader, J. P. Discovery and in Vitro Development of AIDS Antiviral Drugs as Biopharmaceuticals. Adv. Pharmacol. (San Diego) 1995, 6, 389-438, the disclosure of which is incorporated herein by reference. […] See, Pauwels, R.; Balzarini, J.; Baba, M.; Snoeck, R.; Schols, […].; De […]. Rapid and Automated Tetrazolium-based Colorimetric Assay for Detection of Anti-HIV Compounds. J. Virol. Methods 1988, 20, 309-321, the disclosure of which is incorporated herein by reference.

[3] = In vitro hydrolytic stability study in rat plasma; type: in vitro ADME; details: rat plasma in vitro, half-life
Protocol: NMR spectra were obtained at 300 MHz (^1H) and 75 MHz (^13C) in CDCl3 using CHCl3 as internal standard. Flash chromatography was performed with 230-400 mesh silica gel. […] Melting points are uncorrected. Unless otherwise stated, chemicals and solvents were of reagent grade and used as obtained from commercial sources without further purification. Tetrahydrofuran (THF) was freshly distilled from sodium/benzophenone ketyl radical prior to use. Dichloromethane was freshly distilled from calcium hydride prior to use. Lyophilized rat plasma (lot 052K7609) was obtained from Sigma Chemical Co., St. Louis, Mo. All yields given refer to isolated yields.
In vitro Hydrolytic Stability Study in Rat Plasma. […] See, Silvestri, M. A.; Nagarajan, M.; De Clercq, E.; Pannecouque, C.; Cushman, M. Design, Synthesis, Anti-HIV Activities, and Metabolic Stabilities of Alkenyldiarylmethane (ADAM) Non-nucleoside Reverse Transcriptase Inhibitors. J. Med. Chem. 2004, 47, 3149-3162, the disclosure of which is incorporated herein by reference.

[4] = system: MT-4 cells; experiment: Cytotoxicity in mock-infected MT-4 cells; type: cell-based; details: read-out: CC50 MT-4 Cells (50% cytotoxic concentration)
[5] = system: HIV-1RF; experiment: MTS cytoprotection assay, HIV-1RF infection in CEM-SS cells; type: cell-based; details: Human immunodeficiency virus 1; HIV-1RF in CEM-SS cells; read-out: EC50 HIV-1RF (inhibition of cytopathicity)
Protocol: In Vitro Antiviral Assays. Evaluation of the antiviral activity of compounds against HIV-1RF infection in CEM-SS cells was performed using the MTS cytoprotection assay as previously described. See, Rice, W. G.; Bader, J. P. Discovery and in Vitro Development of AIDS Antiviral Drugs as Biopharmaceuticals. Adv. Pharmacol. (San Diego) 1995, 6, 389-438, the disclosure of which is incorporated herein by reference. […] See, Pauwels, R.; Balzarini, J.; Baba, M.; Snoeck, R.; Schols, D.; Herdewijn, P.; Desmyter, J.; De Clercq, E. Rapid and Automated Tetrazolium-based Colorimetric Assay for Detection of Anti-HIV Compounds. J. Virol. Methods 1988, 20, 309-321, the disclosure of which is incorporated herein by reference.

[6] = molecular target: T1, recombinant HIV-1 RT enzyme (p66/51 dimer) (Human immunodeficiency virus type 1 group M subtype B, UniProt P04585); experiment: RT inhibition assay, incorporation of [32P]GTP into poly(rC)/oligo(dG); type: biochemical
T1 construct: recombinant HIV-1 RT enzyme (p66/51 dimer)
Protocol: RT Inhibition Assay. Analysis of the effects of the compounds on recombinant HIV-1 RT enzyme (p66/51 dimer) was performed as previously described. See, Buckheit, R. W. J.; Fliakas-Boltz, V.; Decker, W. D.; Robertson, J. L.; Stup, T. L.; Pyle, C. […] Antiviral Res. 1995, 26, 117-132, the disclosure of which is incorporated herein by reference. Briefly, inhibition of purified recombinant reverse transcriptase enzyme was measured by the incorporation of [^32P]GTP into poly(rC)/oligo(dG) (rCdG) homopolymer template primers.

[7] = Cytotoxicity in mock-infected CEM-SS cells; type: cell-based; details: human, uninfected (mock-infected) CEM-SS cells
Protocol: as §1

[8] = Cytotoxicity in mock-infected MT-4 cells; type: cell-based; details: human, uninfected (mock-infected) MT-4 cells
[9] = system: HIV-2 strain (ROD); experiment: MTT assay, HIV-2 strain (ROD) in MT-4 cells; type: cell-based; details: Human immunodeficiency virus 2, MT4; HIV-2ROD in MT-4 cells; read-out: EC50 HIV-2-ROD (inhibition of cytopathicity)

| Structure (SMILES) | pEC50 [1] | CC50 [2] | Rat Plasma tp1/2 (min ± SD) [3] | CC50 [4] | pEC50 [5] | pIC50 ([6]; poly(rC)•oligo(dG) as the template primer, read-out: IC50 (inhibitory activity vs HIV-1 reverse transcriptase)) | CC50 [7] | CC50 [8] | pIC50 [6] | pEC50 [9] | melting point |
| --- | --- | --- | --- | --- | --- | --- | --- | --- | --- | --- | --- |
| COC(=O)CCCC=C(c1cc(C)c(OC)c(C(=O)OC)c1)c1cc(C)c(OC)c(C(=O)OC)c1 [Compound 1, Methyl 4′,4″-Dimethoxy-3′,3″-di(methoxycarbonyl)-5′,5″-dimethyl-6,6-diphenyl-5-hexenoate] | 6.00 | 6 µM | 0.76 ± 0.04 min | 6.1 µM | 6.60 | 6.00 | – | – | – | – | – |
| COC(=O)CCC/C=C(\c1cccc(C#N)c1)c1cc(C)c2onc(OC)c2c1 [Compound 20, (E)-6-(3-Cyanophenyl)-6-(3-methoxy-7-methylbenzo[d]isoxazol-5-yl)-hex-5-enoic Acid Methyl Ester] | < 5.69 | – | 1.16 ± 0.08 min | – | < 4.00 | – | 0.8 µM | 4.69 µM | 5.24 | < 5.25 | – |
| COC(=O)CCC/C=C(/c1cc(C)c(OC)c(C(=O)OC)c1)c1cc(C)c2oc(=O)n(C)c2c1 [Compound 60, (Z)-5-[1-(3,7-Dimethyl-2-oxo-2,3-dihydro-benzoxazol-5-yl)-5-methoxycarbonyl-pent-1-enyl]-2-methoxy-3-methylbenzoic Acid Methyl Ester] | 6.00 | – | 1.74 ± 0.00 min | – | 6.06 | – | 9.39 µM | 28.2 µM | 6.80 | < 4.55 | – |
| COC(=O)CCC/C=C(/c1cc(Cl)c(OC)c(C(=O)OC)c1)c1cc(C)c2oc(=O)n(C)c2c1 [Compound 61, (E)-3-Chloro-5-[1-(3,7-dimethyl-2-oxo-2,3-dihydro-benzoxazol-5-yl)-5-methoxycarbonyl-pent-1-enyl]-2-methoxybenzoic Acid Methyl Ester] | 6.60 | – | 0.19 ± 0.01 min | – | 6.28 | – | 9.47 µM | 29.7 µM | 6.03 | < 4.53 | – |
| COC(=O)CCC/C=C(/c1ccc(OC)c(C(=O)OC)c1)c1cc(C)c2oc(=O)n(C)c2c1 [Compound 62, (Z)-5-[1-(3,7-Dimethyl-2-oxo-2,3-dihydrobenzoxazol-5-yl)-5-methoxycarbonyl-pent-1-enyl]-2-methoxy-benzoic Acid Methyl Ester] | 5.38 | – | 0.34 ± 0.15 min | – | 5.51 | – | > 13.5 µM | 115 µM | 6.00 | < 3.94 | 134 to 135 °C |
| COC(=O)CCC/C=C(\c1cc(F)cc(C(F)(F)F)c1)c1cc(C)c2oc(=O)n(C)c2c1 [Compound 63, (Z)-6-(3,7-Dimethyl-2-oxo-2,3-dihydrobenzoxazol-5-yl)-6-(3-fluoro-5-trifluoromethylphenyl)-hex-5-enoic Acid Methyl Ester] | 5.36 | – | 3.06 ± 0.32 min | – | < 4.00 | – | 15 µM | 51 µM | < 4.00 | < 4.22 | – |
| COC(=O)CCC/C=C(\c1cc(C)c(OC)c(C(=O)OC)c1)c1cc(C)c2oc(=O)n(C)c2c1 [Compound 64, (E)-5-[1-(3,7-Dimethyl-2-oxo-2,3-dihydro-benzoxazol-5-yl)-5-methoxycarbonyl-pent-1-enyl]-2-methoxy-3-methylbenzoic Acid Methyl Ester] | 7.05 | 5.1 µM | 1.30 ± 0.09 min | 16.9 µM | 7.52 | – | – | – | 7.70 | < 4.77 | – |
| COC(=O)CCC/C=C(/c1cc(C)c2on(C)c(=O)c2c1)c1cc(C)c2oc(=O)n(C)c2c1 [Compound 65, (Z)-6-(2,7-Dimethyl-3-oxo-2,3-dihydro-benzo[d]isoxazol-5-yl)-6-(3,7-dimethyl-2-oxo-2,3-dihydro-benzoxazol-5-yl)-hex-5-enoic Acid Methyl Ester] | 5.35 | – | 0.46 ± 0.03 min | – | 5.75 | – | 11.1 µM | 36.5 µM | 4.31 | < 4.44 | – |
| COC(=O)CCCC=C(c1cc(C)c2oc(=O)n(C)c2c1)c1cc(C)c2oc(=O)n(C)c2c1 [Compound 66, 6,6-Bis-(3,7-dimethyl-2-oxo-2,3-dihydrobenzoxazol-5-yl)-hex-5-enoic Acid Methyl Ester] | 6.66 | – | 0.59 ± 0.01 min | – | 6.21 | – | 31 µM | 32.5 µM | 6.30 | < 4.49 | – |
